Values of other authors, collected in article PMC11185183 (PNAS Nexus, 2024).

System: GC-B

CN(C)CCN1CCCC(C(=O)Nc2nc3c(F)cc(F)cc3s2)C1 (stereo not shown) [MCUF-651]
action on GC-B: lacked any action
